The text below walks through data of EP4306108A1, “5-AMINOLEVULINIC ACID, OR AN ESTER THEREOF FOR USE IN TREATMENT OF CANCER BASED ON THE INHIBITION OF LACTATE DEHYDROGENASE” (Theodossiou, Theodossis, priority 2022, dated 2024).

Molecules are shown by their SMILES.

The subject of data set [1] is U87. The data set can be described thus: Seahorse XF Real-Time ATP Rate Assay. The following applies: U87 cells, 1000µM of 5-ALA, change versus control. The data set is classed as cell-based, human. As to the method:
(§1) The cells used in the present examples were human glioblastoma multiforme (GBM) cell lines, purchased from the American Type Culture Collection (ATCC, Manassas, VA, USA). These cell lines were LN18 (ATCC®, CRL-2610™), U87 (ATCC®, HTB-14™), T98G (ATCC®, CRL-1690™) and M059K (ATCC®, CRL-2365™). All cells were grown in RPMI 1640 without phenol red, supplemented with 10% fetal bovine serum (FBS) and penicillin/streptomycin at 37 °C in a 5% CO2 and 95% humidified atmosphere.
(§2) In order to study the changes in cell metabolism in GBM cells following the in-situ addition of 5-ALA, the Seahorse XFe96 analyzer (Agilent Technologies) was employed. Briefly, 4×10^4 cells were seeded in a seahorse plate and incubated overnight in complete RPMI 1640 medium at 37 °C, and a 5% CO2 humidified atmosphere. One hour prior to the experiments, the cells had their media changed to unbuffered XF RPMI pH 7.4 medium supplemented with 10 mM glucose, 2 mM L-glutamine, and 2 mM sodium pyruvate and were incubated for one hour at 37 °C, 0% CO2 atmosphere. The basal oxygen consumption and media acidification rates (OCR and ECAR respectively) of the cell groups were measured in four cycles. After those four cycles injections of i) 5-ALA (500 - 1000 µM), ii) Oligomycin A (OLIGO) 1 µM, iii) Carbonyl cyanide 4-(trifluoromethoxy)phenylhydrazone (FCCP) 1 µM and iv) Antimycin A (ANTI A) and Rotenone (ROT) 2 µM each were sequentially performed for 3 measurement cycles each.
(§3) The ATP contributions of mitochondrial respiration and cell glycolysis in U87, T98G, M059K and LN18 human GBM cells in the presence or absence of 5-ALA, were deconvoluted quantified by use of the Seahorse XF Real-Time ATP Rate Assay Kit. In brief the same protocol as in Example 1 was followed without the injection of FCCP and with only three basal measurement cycles, while the corresponding final concentrations of OLIGO and ROT/ANTI A were this time 1.5 and 0.5 µM. The ATP rates were determined with use of the Agilent Seahorse XF Real-Time ATP Rate Assay Report Generator.
(§4) The wells in the bottom row of the seahorse plates were in all cases left devoid of cells and were used as blank values. These were automatically subtracted by the Seahorse analyser software.
(§5) The changes in ATP production from either respiration or glycolysis were evaluated upon addition of 1000µM of 5-ALA.

The subject of data set [2] is T98G. The data set can be described thus: Seahorse XF Real-Time ATP Rate Assay. Type of data set: cell-based, human. As to conditions: T98G cells; 1000µM of 5-ALA; change versus control. As to the method:
as §1, §2, §3, §4, §5

In data set [3] the test system is LN18. As to the kind of experiment: Seahorse XF Real-Time ATP Rate Assay. The following applies: LN18 cells; 1000µM of 5-ALA; change versus control. Type of data set: cell-based, human. As to the method:
as §1, §2, §3, §4, §5

The next data set concerns M059K. As to the kind of experiment: Seahorse XF Real-Time ATP Rate Assay. The data set is classed as cell-based, human. As to conditions: M059K cells; 1000µM of 5-ALA; change versus control. On the procedure: as §1, §2, §3, §4, §5
Data set [4] deals with U87. As to the kind of experiment: MTT cell viability assay. The data set is classed as cell-based, human. As to conditions: U87 cells. On the procedure:
as §1
(§6) The cells were incubated with 5, 10 and 20 mM 5-ALA for three days and each day the effect of 5-ALA on their viability was assessed by standard MTT assays at 24, 48 and 72h following incubation. The results are shown in Figure 5 (Error bars represent one SD).

Data set [5] relates to T98G. As to the kind of experiment: MTT cell viability assay. Type of data set: cell-based, human. As to conditions: T98G cells; 10mM 5-ALA; after 72h incubation. On the procedure: as §1, §6
In data set [6] the test system is LN18. As to the kind of experiment: MTT cell viability assay. Type of data set: cell-based, human. As to conditions: LN18 cells. On the procedure: as §1, §6
In another data set the target is LDH-A isoform (Homo sapiens, UniProt P00338). The data set can be described thus: Spectrophotometric LDH kinetics (NADH absorbance at 340 nm), enzyme solution.
In data set [7] the test system is LDH present in cell lysates, T98G. The data set can be described thus: Spectrophotometric LDH kinetics (NADH absorbance at 340 nm), cell lysates. Type of data set: biochemical, human. The following applies: 0.75 mM 5-ALA, no inhibitor: -1.20. On the procedure:
as §1
(§7) A. enzyme solutions. 0.5 mL of an aqueous LDH solution was mixed with 0.5 mL reaction buffer to start the LDH reduction of pyruvate. The final LDH concentration was always 5 µM. […] The final concentration of 5-ALA in the total volume of the reaction mix (1 mL) was 5 mM for 5-ALA. In the enzymatic assays LDH refers to the LDH-A isoform.
(§8) In the second phase of the experiments, the enzymatic activity of LDH present in cell lysates was investigated.
(§9) Cell lysates were obtained from LN18, T98G, U87 and M059K GBM cells. In brief, cells from confluent T175 flasks were harvested with the use of TrypLE™ Express Enzyme (Gibco, REF# 12604021) and resuspended in ddH2O with Triton™ X-100 (0,25%). The cell lysate measurements were performed according to the enzymatic solution measurents, however in this case, cell lysates equivalent to […] were each time added to the H2O half of the reaction mix. […]

In data set [8] the test system is LDH present in cell lysates, M059K. The data set is described as above. Type of data set: biochemical, human. The following applies: 0.75 mM 5-ALA, no inhibitor: -1.47. As to the method: as §1, §7, §8, §9
The test system of data set [9] is U87. As to the kind of experiment: Seahorse XFe96 metabolic assay (OCR/ECAR), in-situ injection of 5-ALA. Type of data set: cell-based, human. The following applies: U87 cells; 5-ALA 500 - 1000 µM injected in situ; Figure 1. As to the method:
as §1, §2

Data set [10] has as its system T98G. The description is as above. As to conditions: T98G cells; 5-ALA 500 - 1000 µM injected in situ; Figure 1. Type of data set: cell-based, human. On the procedure:
as §1, §2

Data set [11] relates to LN18. The data set is described as above. The following applies: LN18 cells; 5-ALA 500 - 1000 µM injected in situ; Figure 1. The data set is classed as cell-based, human. As to the method:
as §1, §2

The next data set concerns MO59K. The data set is described as above. Type of data set: cell-based, human. The following applies: MO59K cells; 5-ALA 500 - 1000 µM injected in situ; Figure 1. As to the method: as §1, §2
The subject of data set [12] is LDH present in cell lysates, Ln18. As to the kind of experiment: Spectrophotometric LDH kinetics (NADH absorbance at 340 nm), cell lysates. The data set is classed as biochemical, human. The following applies: 0.75 mM 5-ALA, no inhibitor: -1.48. As to the method:
as §1
(§10) A. enzyme solutions. 0.5 mL of an aqueous LDH solution was mixed with 0.5 mL reaction buffer to start the LDH reduction of pyruvate. The final LDH concentration was always 5 µM.

Data set [13] relates to LDH present in cell lysates, U87. Described as above. Type of data set: biochemical, human. As to conditions: 0.75 mM 5-ALA, no inhibitor: -1.43. On the procedure:
as §1, §10

[14] abbreviates: 10mM 5-ALA, all time points (24, 48 and 72h).
The mark [15] stands for this setting: 20 mM 5-ALA, compared with the 90-98% reduction at 10mM.

Regarding `NCC(=O)CCC(=O)O` [5-ALA, 5-Aminolevulinic acid], the “reduction in glycolytic ATP production” value with U87 [1] was roughly -200 pmol/min; in the data set with T98G [2], roughly -200 pmol/min; in the data set with LN18 [3], roughly -140 pmol/min; in the data set with M059K, ~ -250 pmole/min. The “increase in mitochondrial respiration-derived ATP” value with U87 [1] (marginally significant) is ~ 100 pmole/min. Also, the “reduction in cell viability” value with U87 [4] (setting [14]) is recorded as 90-98%; with U87 [4] (setting [15]) it was “in general, maintained”; in the data set with LN18 [6] (setting [14]), 90-98%; in the data set on LN18 [6] (setting [15]), “in general, maintained”. The “lethality level reached (cell viability)” value in the data set with T98G [5] is “LD40”. Besides, the “initial slope of NADH absorbance curve (corresponds to Vmax of the enzyme)” value on LDH-A isoform (Enzyme solution, 5 mM 5-ALA, first 5 data points (8 sec), pH 6.5, no inhibitor: -2.28) is -0.51. Also, the activity at 5000 µM on LDH-A isoform (read-out: enzyme function as % of its Vmax) was roughly 22%. Further, the “initial slope of NADH absorbance curve (LDH Vmax for the cell lysate volume studied)” value in data set [7] is -0.57; in data set [8], -0.53; in data set [12], -0.47; in data set [13] it was -0.32. Further, the glycolytic activity result with U87 [9], in the data set with T98G [10], in the data set on LN18 [11] and with MO59K was “drop in the glycolytic activity of those cell lines which was dose dependent” each time.
